The values below come from US11072585B2 (PharmAkea, Inc., priority 2015, dated 2021).

One assay deals with human LOXL2 (Homo sapiens (Human), UniProt Q9Y4K0). Briefly: Human LOXL2 amine oxidase activity assay (Amplex Red). Type of assay: biochemical. The settings on record: concentrated conditioned media from CHO cells stably expressing human LOXL2; 2 h at 37° C. with compound; DAP substrate. In short, it runs like this: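 Concentrated conditioned medium from CHO cells stably expressing human LOXL2 was preincubated with compound for 2 h at 37 °C in 50 mM borate, pH 8. 1,5-diaminopentane substrate and Amplex Red/HRP were then added. Fluorescence (544/590) was read kinetically every 2 min for 1 h, with activity taken from the linear slope.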

Assay [1] concerns bleomycin-induced lung fibrosis in C57Bl/6 male mice. Briefly: Mouse oropharyngeal bleomycin model of lung fibrosis. In kind it is in vivo. The settings on record: for efficacy in bleomycin lung fibrosis model, prophylactic dosing: dosed prophylactically at 60 mg/kg p.o.; for efficacy in bleomycin lung fibrosis model, therapeutic dosing: dosed therapeutically at 60 mg/kg p.o. As for the experimental part: Example B-3: Mouse Oropharyngeal Bleomycin Model of Lung Fibrosis
Lung fibrosis is induced in C57Bl/6 male mice by administering bleomycin (0.1-4 U/kg) via oropharyngeal instillation. Mice are either pretreated with vehicle or test compound (1 day to 1 hour) orally, intraperitoneally, intravenously or subcutaneously before bleomycin installation (prophylactic dosing) or 7-14 days post bleomycin instillation (therapeutic dosing). The route and frequency of dosing are based on previously determined pharmacokinetic properties for the LOXL2 inhibitor in mouse. After bleomycin instillation animals are monitored daily for weight loss and clinical signs for 14-28 days prior to sacrifice. Animals are euthanized at study termination and weighed and blood (for isolation of plasma) and bronchoalveolar lavage are collected and frozen for subsequent analyses. Lungs are removed, weighed, then either inflated and fixed by instillation of 10% formalin and prepared for histological examination or homogenized in 1 ml PBS for collagen determination using a hydroxyproline assay. For histological examination, lung slices are stained with Masson's trichrome or Picro-Sirius red to measure cross-linked collagen as an indicator of fibrosis and an Ashcroft score of lung fibrotic and inflammatory damage determined. In addition, immunohistochemistry of fibrotic proteins such as a-smooth muscle actin can be recorded. For lung hydroxyproline content, 0.5 ml of the lung homogenate is removed and added to 0.5 ml 12 N HCl and the samples heated at 120° C. overnight. After the acid hydrolysis, 25-100 μl of the supernatant is dried down, resuspended in 25 μl water and the hydroxyproline content determined by the addition of 0.5 ml Chloramine T solution (140 mg Chloramine T in 6.5 ml ddH2O+1 ml n-propanol+2.5 ml 1M sodium acetate) and incubation at room temperature for 20 min. After the incubation, 0.5 ml Erlich's solution (1.48 g of 4-(dimethylamino(benzaldehyde) in 7 ml n-propanol+2.88 ml 60% perchloric acid and 0.12 ml ddH2O) is added and incubated at 65° C. for 15 min before reading the absorbance at 550 nm. The concentration of hydroxyproline in each […] is determined from a hydroxyproline (purchased from Sigma) standard curve.

Counter-ions that a name gives are not always drawn. Some results are limits rather than exact numbers.

human LOXL2, sequence (Q9Y4K0 26-774): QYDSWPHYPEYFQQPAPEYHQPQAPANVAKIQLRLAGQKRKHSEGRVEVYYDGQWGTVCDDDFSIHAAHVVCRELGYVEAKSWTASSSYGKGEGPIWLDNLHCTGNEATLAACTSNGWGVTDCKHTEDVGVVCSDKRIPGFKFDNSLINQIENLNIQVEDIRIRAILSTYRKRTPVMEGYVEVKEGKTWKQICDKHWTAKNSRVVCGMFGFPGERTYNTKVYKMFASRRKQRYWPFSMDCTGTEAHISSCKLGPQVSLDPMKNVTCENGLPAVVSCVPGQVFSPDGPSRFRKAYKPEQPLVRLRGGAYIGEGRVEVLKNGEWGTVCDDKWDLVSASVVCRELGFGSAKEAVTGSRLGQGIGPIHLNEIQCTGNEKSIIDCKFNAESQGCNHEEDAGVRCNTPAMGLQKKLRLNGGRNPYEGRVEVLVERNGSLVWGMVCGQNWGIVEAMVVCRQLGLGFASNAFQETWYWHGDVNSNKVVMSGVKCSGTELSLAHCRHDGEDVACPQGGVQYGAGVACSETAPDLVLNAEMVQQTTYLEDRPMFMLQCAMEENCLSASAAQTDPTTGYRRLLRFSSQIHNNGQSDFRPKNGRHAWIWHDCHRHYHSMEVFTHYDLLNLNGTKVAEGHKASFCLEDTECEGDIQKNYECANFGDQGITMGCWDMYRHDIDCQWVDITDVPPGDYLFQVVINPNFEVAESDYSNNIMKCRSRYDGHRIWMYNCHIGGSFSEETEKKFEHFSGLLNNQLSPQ

For the compound `Cl.NCc1cc(Oc2cccc(C(=O)N3C[C@@H](O)[C@H](F)C3)c2)nc(C(F)(F)F)c1` (stereo in doubt) [Compound 1-19, Racemic-trans-(3-((4-(aminomethyl)-6-(trifluoromethyl)pyridin-2-yl)oxy)phenyl)(3-fluoro-4-hydroxypyrrolidin-1-yl)methanone hydrochloride], the IC50 (in general, the concentration that gives 50% inhibition) on human LOXL2 is less than 300 nM. Also, in assay [1], the “efficacy in bleomycin lung fibrosis model, prophylactic dosing” value (shortened to “efficacy … prophylactic dosing”) was “efficacious” and the “efficacy in bleomycin lung fibrosis model, therapeutic dosing” value is reported as “efficacious”. On to `Cl.NCc1cc(Oc2cccc(C(=O)N3C[C@H](O)[C@@H](F)C3)c2)nc(C(F)(F)F)c1` (stereo in doubt) [Compound 1-20, (S,S)-trans-(3-((4-(Aminomethyl)-6-(trifluoromethyl)pyridin-2-yl)oxy)phenyl)(3-fluoro-4-hydroxypyrrolidin-1-yl)methanone hydrochloride], for which the IC50 on human LOXL2 was less than 300 nM. Besides, in assay [1], the “efficacy … prophylactic dosing” value is listed as “efficacious” and the “efficacy in bleomycin lung fibrosis model, therapeutic dosing” value was “efficacious”.

As for `CS(=O)(=O)CCNC(=O)c1cccc(Oc2cc(CN)cc(C(F)(F)F)n2)c1.Cl` [Compound 1-30, 3-((4-(Aminomethyl)-6-(trifluoromethyl)pyridin-2-yl)oxy)-N-(2-(methylsulfonyl)ethyl)benzamide hydrochloride], on human LOXL2, the IC50 is less than 300 nM. For the same compound, the “efficacy … prophylactic dosing” value in assay [1] is “efficacious”. For `Cl.NCc1cc(Oc2cccc(C(=O)NCCn3cnnn3)c2)nc(C(F)(F)F)c1` [Compound 1-15, N-(2-(1H-Tetrazol-1-yl)ethyl)-3-((4-(aminomethyl)-6-(trifluoromethyl)pyridin-2-yl)oxy)benzamide hydrochloride], in that order: less than 300 nM and “efficacious”. `Cl.NCc1cc(Oc2cccc3c2CCC(=O)N3)nc(C(F)(F)F)c1` [Compound 1-59, 5-((4-(Aminomethyl)-6-(trifluoromethyl)pyridin-2-yl)oxy)-3,4-dihydroquinolin-2(1H)-one hydrochloride]: at human LOXL2, the IC50 was less than 300 nM. Further, the “efficacy … prophylactic dosing” value in assay [1] is “efficacious”.

Consider `NCc1cc(Oc2cncc(C(=O)N3CC[C@@H](N)C3)c2)nc(C(F)(F)F)c1` [Compound 1-54, (R)-(5-((4-(Aminomethyl)-6-(trifluoromethyl)pyridin-2-yl)oxy)pyridin-3-yl)(3-aminopyrrolidin-1-yl)methanone dihydrochloride], for which the IC50 at human LOXL2 is less than 300 nM. On the same count and under the same terms, next, `NCc1cc(Oc2cccc(C(=O)NCCO)c2)nc(C(F)(F)F)c1` [Compound 1-16, 3-((4-(Aminomethyl)-6-(trifluoromethyl)pyridin-2-yl)oxy)-N-(2-hydroxyethyl)benzamide hydrochloride]: less than 300 nM; `N=C(N)NC(=O)Cn1ccc2c(Oc3cc(CN)cc(C(F)(F)F)n3)cccc21` [Compound 1-234, 2-(4-((4-(Aminomethyl)-6-(trifluoromethyl)pyridin-2-yl)oxy)-1H-indol-1-yl)-N-carbamimidoylacetamide dihydrochloride]: greater than 1000 nM; `NCc1cc(OC2CCN(C(=O)Nc3ccccc3)CC2)nc(C(F)(F)F)c1` [Compound 1-41, 4-((4-(Aminomethyl)-6-(trifluoromethyl)pyridin-2-yl)oxy)-N-phenylpiperidine-1-carboxamide trifluoroacetate]: 300 to 1000 nM. Still for that read-out and setting: then `NCc1cc(Oc2cccc(C(=O)N3CCC(CO)CC3)c2)nc(C(F)(F)F)c1` [Compound 1-204, (3-((4-(Aminomethyl)-6-(trifluoromethyl)pyridin-2-yl)oxy)phenyl)(4-(hydroxymethyl)piperidin-1-yl)methanone hydrochloride], with less than 300 nM. In the case of `Cl.NCc1cc(Oc2cccc(C(=O)Nc3ccccc3)c2)nc(C(F)(F)F)c1` [Compound 1-7, 3-((4-(Aminomethyl)-6-(trifluoromethyl)pyridin-2-yl)oxy)-N-phenylbenzamide hydrochloride], the IC50 on human LOXL2 is less than 300 nM. Moreover, in assay [1], the “efficacy … prophylactic dosing” value is “efficacious”. Turning to `NCc1cc(Oc2cccc(C(=O)N3CCC[C@H](CO)C3)c2)nc(C(F)(F)F)c1` [Compound 1-203, (S)-(3-((4-(Aminomethyl)-6-(trifluoromethyl)pyridin-2-yl)oxy)phenyl)(3-(hydroxymethyl)piperidin-1-yl)methanone hydrochloride], at human LOXL2, the IC50 was less than 300 nM. Same read-out and setting: next, `NCc1cc(NC(=O)c2cccc(C(=O)N3CC[C@H](O)C3)c2)nc(C(F)(F)F)c1` [Compound 1-241, (S)—N-(4-(Aminomethyl)-6-(trifluoromethyl)pyridin-2-yl)-3-(3-hydroxypyrrolidine-1-carbonyl)benzamide trifluoroacetate]: less than 300 nM; `NCc1cc(O[C@H]2CCCN(C(=O)Cc3ccccc3)C2)nc(C(F)(F)F)c1` [Compound 1-46, (S)-1-(3-((4-(Aminomethyl)-6-(trifluoromethyl)pyridin-2-yl)oxy)piperidin-1-yl)-2-phenylethanone trifluoroacetate]: less than 300 nM. For `NCc1cc(Oc2cccc(C(=O)O)c2)nc(C(F)(F)F)c1` [Compound 1-224, 3-((4-(Aminomethyl)-6-(trifluoromethyl)pyridin-2-yl)oxy)benzoic acid hydrochloride], the IC50 on human LOXL2 was in the range of 300 to 1000 nM.

Regarding `NCc1cc(Oc2cccc(C(=O)N3CC[C@H](F)C3)c2)nc(C(F)(F)F)c1` [Compound 1-213, (S)-(3-((4-(Aminomethyl)-6-(trifluoromethyl)pyridin-2-yl)oxy)phenyl)(3-fluoropyrrolidin-1-yl)methanone hydrochloride], the IC50 on human LOXL2 was less than 300 nM.

In the case of `CS(=O)(=O)CCNC(=O)c1cncc(Oc2cc(CN)cc(C(F)(F)F)n2)c1` [Compound 1-53, 5-((4-(Aminomethyl)-6-(trifluoromethyl)pyridin-2-yl)oxy)-N-(2-(methylsulfonyl)ethyl)nicotinamide hydrochloride], on human LOXL2, the IC50 was less than 300 nM. The same measure, in the same setting: next, `NCc1cc(Oc2cccc(C(=O)NC3COC3)c2)nc(C(F)(F)F)c1` [Compound 1-200, 3-((4-(Aminomethyl)-6-(trifluoromethyl)pyridin-2-yl)oxy)-N-(oxetan-3-yl)benzamide trifluoroacetate]: less than 300 nM; `CS(=O)(=O)CCNC(=O)c1cccc(CNc2cc(CN)cc(C(F)(F)F)n2)c1` [Compound 1-106, 3-(((4-(Aminomethyl)-6-(trifluoromethyl)pyridin-2-yl)amino)methyl)-N-(2-(methylsulfonyl)ethyl)benzamide hydrochloride]: less than 300 nM.

As for “N′-(4-(Aminomethyl)-6-(trifluoromethyl)pyridin-2-yl)-N^3-(2-(methylsulfonyl)ethyl)isophthalamide trifluoroacetate [Compound 1-242]”, the IC50 on human LOXL2 was less than 300 nM.

Take `NCc1cc(Oc2cccc(C(=O)NCCN3CCOC3=O)c2)nc(C(F)(F)F)c1` [Compound 1-28, 3-((4-(Aminomethyl)-6-(trifluoromethyl)pyridin-2-yl)oxy)-N-(2-(2-oxooxazolidin-3-yl)ethyl)benzamide]: the IC50 at human LOXL2 is less than 300 nM.
